The text below walks through data of PubChem BioAssay (NCI).

Values joined by “and” are separate entries in the source; they are usually repeats but may differ in a detail not shown here. Identical values can stand only once.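 Briefly, cells in 96-well plates were exposed to five compound concentrations for 48 h, and endpoints were estimated by linear interpolation. The concentration for 50% growth inhibition is given as GI50. TGI marks complete inhibition of growth.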

Assay in all cases: DTP human tumour cell line panel, 48 h
Test [1] concerns KM12 colon.
In test [2] the test system is EKVX NSCLC.
For test [3], the system named is HCT-116 colon.
In test [4] the test system is HS 578T breast.
The subject of test [5] is NCI-H522 lung.
The subject of test [6] is ACHN renal.
Test [7] relates to NCI/ADR-RES ovarian.
The subject of test [8] is SN12C renal.
The test system of test [9] is NCI-H23 lung.
Test [10] concerns CAKI-1 renal.

With `Cc1nc(-c2cn3c(n2)-c2ccc(-c4cnn(C(C)(C)C(N)=O)c4)cc2OCC3)n(C(C)C)n1`, the GI50 – broadly, the concentration that inhibits growth by half – in test [1] was 3.48 µM and 3 µM; in test [2], 1.48 µM; in test [3], 1.2 µM and 0.399 µM; in [4] it was 0.147 µM and 0.169 µM; in test [5], 5.73 µM and 6.01 µM; in test [6] it was 0.647 µM and 1.33 µM. The GI50 was 8.25 µM and > 7.21 µM in [7]; 1.54 µM and 1.04 µM in [8]; 13.8 µM and > 5.49 µM in test [9]; 1 µM and 1.2 µM in [10]. The TGI (commonly the concentration giving total growth inhibition) in [1] was 17.2 µM and > 10 µM; in test [2], above 10 µM; in test [3], 23.4 µM and > 10 µM; in test [4], 13 µM and > 10 µM; in test [5], 26.7 µM and > 10 µM; in test [6], above 100 µM. The TGI in [7] was above 83.1 µM; in test [8], above 100 µM; in [9], above 100 µM; in test [10] it was above 100 µM.
As for `O=C1C=CC(=Nc2cc(Br)c(O)c(Br)c2)C=C1`, the GI50 was 16.9 µM in test [1]; 52 µM in test [2]; 11.5 µM in test [3]; 32.1 µM in test [4]; 3.96 µM in test [5]; 18.9 µM in test [6]. For the same compound, the GI50 was 47.2 µM in test [7], 25.6 µM in test [8], 16 µM in test [9] and 26.4 µM in [10]. In addition, the total growth inhibition concentration (TGI) is 42.5 µM in test [1]; above 100 µM in test [2]; 26.3 µM in test [3]; above 100 µM in test [4]; 28.8 µM in test [5]; 46.3 µM in [6]. For the same compound, the TGI in test [7] is above 100 µM; in test [8], 84.1 µM; in [9], 38.3 µM; in [10], 68 µM.
In the case of `O=C(c1ccccc1)C(CN1CCCCC1)c1ccccc1` (stereo not given), the GI50 in test [1] was 3.75 µM; in [2] it was 3.5 µM; in [3] it was 1.13 µM; in test [4], 4.49 µM; in test [5] it was 0.316 µM; in test [6], 0.941 µM. The GI50 in [7] was 1.27 µM; in test [8] it was 1.79 µM; in test [9], 1.65 µM; in test [10], 1.08 µM. Further, the TGI came out at 13.8 µM in [1]; 16.7 µM in [2]; 2.46 µM in [3]; 33.2 µM in test [4]; 2.53 µM in test [5]; 2.13 µM in test [6]. The TGI in test [7] is 2.9 µM; in test [8], 3.8 µM; in [9], 3.78 µM; in [10], 2.45 µM.
On to `Cc1nnc(-c2cccc(-c3ccc(C(=O)NCC4CC4)cc3)c2)o1`, for which the GI50 in test [1] was 15.5 µM; in test [2] it was above 25 µM; in test [3], above 25 µM; in test [4], above 25 µM; in test [5], above 25 µM; in test [6], above 25 µM. In addition, the GI50 in test [7], in test [8], in [9] and in [10] was above 25 µM each time. The total growth inhibition concentration (TGI) in [1], in [2], in [3], in [4], in test [5] and in test [6] was above 25 µM throughout. Also, the TGI in test [7], in test [8], in test [9] and in test [10] was above 25 µM each time.
Consider `COc1cc(C(=O)N2CCN(c3ncnc4ccccc34)CC2)c(N)cc1OCc1ccccc1`, for which the GI50 in [1] was 14.9 µM; in test [2], 22.5 µM; in test [3] it was 10.7 µM; in [4], 17.1 µM; in test [5], 5.71 µM; in test [6], 14 µM. Besides, the GI50 in test [7] was 16.1 µM; in [8], 18.3 µM; in test [9], 15.6 µM; in [10], 5.73 µM. The TGI in [1] worked out at 38.4 µM; in test [2], 48.5 µM; in test [3], 22.6 µM; in test [4], 55.7 µM; in [5], 26.8 µM; in [6], 37.6 µM. In addition, the TGI in test [7] was 35.1 µM; in test [8], 32.3 µM; in [9], 30.4 µM; in [10], 24.1 µM.
Regarding `Cc1nc2ccccc2c(/C=C/c2ccc(Cl)cc2)c1C(=O)/C=C/c1ccc(C(F)(F)F)cc1`, the GI50 in test [1] was 1.28 µM; in test [2], 0.865 µM; in test [3] it was 0.192 µM; in test [4], 0.659 µM; in test [5] it was 0.198 µM; in test [6], 0.241 µM. For the same compound, the GI50 in test [7] is 0.619 µM; in [8], 1.15 µM; in [9], 0.827 µM; in test [10], 0.386 µM. For the same compound, the TGI amounted to 3.46 µM in test [1]; 2.31 µM in test [2]; 0.652 µM in [3]; 3.57 µM in [4]; 0.838 µM in test [5]; 0.594 µM in test [6]. The TGI in [7] is 3.63 µM; in [8] it was 2.62 µM; in test [9] it was 2.78 µM; in [10], 1.52 µM.
`Cn1cnc([N+](=O)[O-])c1Sc1nc(N)nc2c1ncn2C1CC(O)C(CO)O1` (stereo not given): the TGI in test [1] was 12.1 µM; in test [2], above 100 µM; in test [3], above 100 µM; in test [4], above 100 µM; in test [5], 14.4 µM; in test [6], above 92.8 µM. Besides, the TGI is above 100 µM in test [7], above 100 µM in [8], above 55 µM in [9] and above 100 µM in test [10].
`[N-]=[N+]=NCCCCCC(=O)OC(C(=O)c1ccccc1)c1cccc(OCC(=O)NCCOCCOCCNC(=O)CCCC[C@@H]2SC[C@@H]3NC(=O)N[C@@H]32)c1` (stereo not given in full): the GI50 in test [1] is above 100 µM; in [2], above 100 µM; in test [3], 67.2 µM; in test [4] it was above 100 µM; in test [5], above 100 µM; in test [6] it was above 100 µM. The GI50 in test [7], in [8], in test [9] and in [10] was above 100 µM each time. Further, the concentration for total growth inhibition (TGI) in [1], in test [2], in test [3], in test [4], in test [5] and in test [6] was above 100 µM each time. Besides, the TGI in test [7], in test [8], in test [9] and in [10] was above 100 µM in each case.
